Data as given in patent US5783586A, “Heteroarylmethoxyphenylthioalkyl carboxylates as inhibitors of leukotriene biosynthesis” (Abbott Laboratories, priority 1996, dated 1998).

Legend:
[1] = test system: leukotriene biosynthesis (LTB4) in human polymorphornuclear leukocytes (PMNL); assay: calcium ionophore-induced LTB4 in human PMNL (leukotriene biosynthesis inhibition in vitro); assay type: cell-based; conditions: calcium ionophore 8.3 μM, 15 min preincubation, LTB4 measured
Method: Lipoxygenase Inhibition Determination in vitro
Inhibition of leukotriene biosynthesis was evaluated in vitro using an assay involving calcium ionophore-induced LTB4 expressed in human polymorphornuclear leukocytes (PMNL). Human PMNL isolated from heparinized (20 USP units/mL) venous blood (25 mL) obtained from healthy volunteers was layered over an equal volume of Ficoll-Hypaque Mono-Poly Resolving Medium (ICN Flow, Costa Mesa, Calif.) and centrifugated at 400 × g for 40 minutes at 20° C. The PMNL was collected, erythrocytes lysed and washed 2× and suspended at 1.0×10^7 cells/ml in Earle's balanced salt solution with 17 mM Earle's HEPES. Aliquots of the cell suspension were preincubated with test compounds dissolved in DMSO (final concentration <2%) for 15 minutes and stimulated with calcium ionophore (final concentration 8.3 μM) for 10 minutes at 37° C. Incubations were stopped with the addition of two volumes of ice-cold methanol followed by centrifuging the cell suspensions at 4° C. for 10 minutes at 450 × g. The amount of LTB4 in the methanol extract was analyzed by enzyme-linked immunoassay or by HPLC analysis.

leukotriene biosynthesis = assay: Ionophore A23187-Induced Rat Pleural Inflammation Model (leukotriene biosynthesis inhibition in vivo); conditions: 1 h, male rats, dosed in 0.2% methocel one hour prior to intrapleural A23187, eicosanoids in pleural lavage
Method: Lipoxygenase Inhibition Determination in vivo
Inhibition of leukotriene biosynthesis in vivo was evaluated using the lonophore A32187-Induced Rat Plueral Inflammation Model. Pleural inflammation was induced in male rats following the method of Rao, et al (Rao, T. S., Currie, J. L., Shaffer, A. F., Isakson, P. C., (1993) Evaluation of 5-lipoxygenase Inhibitors, Zileuton, A-78773 and ICI D-2138 in an Ionophore (A-23187) Induced Pleural Inflammation Model in the Rat, Life Sciences, 53: 147 (1993)). Rats were dosed with experimental compounds in 0.2% methocel one hour prior to the intrapleural injection of the calcium ionophore, A23187. The rats where lightly anesthetized with Pentrane (Abbott Laboratories) and injected intrapleurally with 0.5 ml of 2% ethanol in injectable saline (Abbott Laboratories) containing 20 μg of A23187 (Cal BioChem-Novabiochem). Thirty minutes later the animals were euthanised and the pleural cavities lavaged with ice cold saline (Abbott Laboratories). The lavage fluid was then added to ice cold methanol (final methanol concentration 30%) to lyse cells and precipitate protein. Eicosanoids were determined by enzyme immunoassay by standard methods.

IC50 [1]: 230 nM
Structure (SMILES): CC(SCC(=O)O)(c1ccc(OCc2ccc3ccccc3n2)cc1)c1ccc(OCc2ccc3ccccc3n2)cc1 [Example 1, 1,1-bis(4-(2-quinolylmethoxy)phenyl)eth-1-ylthioacetic acid]
ED50 (leukotriene biosynthesis): 1.1 mg/kg
